Test results: ChEMBL document CHEMBL1149703 (Bioorg Med Chem Lett, 2007)

Target: cAMP-dependent protein kinase catalytic subunit alpha (Homo sapiens, UniProt P17612)
Assay: Inhibition of cAPK Calpha in presence of 1 mM ATP

## COC(=O)[C@@H]1C[C@@H](O)[C@H](n2cnc3c(N)ncnc32)C1
  IC50: 168 µM
